Laboratory results reported in patent publication US20080306166A1, “Compositions and Methods For Treatment of Disorders of Protein Aggregation” (priority 2004, published 2008).
“Also recorded” adds a separate entry of the source.

Experiments:
[1] = biological target: T1, Aβ42 (Homo sapiens, UniProt P05067); assay: Plasma Aβ42 levels; format: in vivo, mouse; conditions: TgCRND8 mice, 28 days of therapy at five months of age
T1 construct: analyzed for Aβ40 and Aβ42 using commercially available kits; from tissue; host or cells: TgCRND8 transgenic mice: hemi-brain (A3) and plasma (A5)
Procedure: Mice. […] This initial dosage was chosen based upon the dosage of myo-cyclohexanehexyl (6-18 grams/day/adult or 86-257 mg/Kg/day) that is typically administered to human patients for various psychiatric disorders. […] A cohort of animals (n=10 mice per treatment arm) entered the study at five months of age, and outcomes were then analyzed after one month of treatment. The body weight, coat characteristics and in cage behaviour were monitored. Mannitol was used as a negative control for potential alterations in caloric intake. All experiments were performed according to the Canadian Council on Animal Care guidelines. Behavioural tests: Morris Water Maze testing was performed as previously described. […] Duration of walking, pausing and grooming were analyzed as indices of spontaneous locomotor activity. […] Latency to fall was recorded in four daily trials, conducted at 30 min intervals. […] Amyloid plaque burden was assessed with Leco IA-3001 image analysis software interfaced with Leica microscope and Hitachi KP-M1U CCD video camera. […] Vascular amyloid burden was defined as amyloid originating from or surrounding blood vessels and was analysed similarly. […] After neutralization, the samples were diluted and analyzed for Aβ40 and Aβ42 using commercially available kits (BIOSOURCE International). Each hemisphere was analyzed intriplicate and the mean values ±SEM reported. […] Gliosis Quantitation. […]

[2] = tested on: rats; assay: Alternating Lever Cyclic Ratio (ALCR) test after ICV Aβ oligomers; format: in vivo, rat
Procedure: The Aβ oligomers are naturally produced by cells transfected with genes that over-produce the amyloid precursor protein (APP). […] In addition, oligomeric Aβ is extracted from brain homogenate taken from transgenic mice (Tg2576) transfected with the Swedish APP mutation. […] These purified oligomeric forms of Aβ, at physiological concentrations relevant to those found in AD, are injected into the rat's lateral ventricle through an indwelling cannula while the animals are awake and moving. Two hours after injection the rats are tested under sensitive cognitive assay. The assay, the Alternating Lever Cyclic Ratio (ALCR) test, has proven to be much more sensitive than previously published methods for measuring drug effects on cognitive function. In this task, rats must learn a complex sequence of lever-pressing requirements in order to earn food reinforcement in a two-lever experimental chamber. Subjects must alternate between two levers by switching to the other lever after pressing the first lever enough to get food reward. The exact number of presses required for each food reward changes, first increasing from 2 responses per food pellet up to 56 presses per food pellet, then decreasing back to 2 responses per pellet. Intermediate values are based on the quadratic function, x^2−x. One cycle is an entire ascending and descending sequence of these lever press requirements (e.g., 2, 6, 12, 20, 30, 42, 56, 56, 42, 30, 20, 12, 6, and 2 presses per food reward). Six such full cycles are presented during each daily session. […] Oligomeric Aβ: […] These cells secrete oligomeric Aβ into the culture medium (CM) at physiological levels. Aβ oligomers was also derived from Tg2576 mouse brain and purified by size exclusion chromatography. Samples of oligomeric Aβ were characterized by Western Blot Analysis. Appropriate control compounds were produced and tested for each active Aβ oligomeric configuration. Rats: Forty (40) rats were trained under ALCR for approximately 3 months until their error rates are stable. Training sessions were conducted 5 days each week. Surgery: After training, all rats received a single 28 ga. cannula that was permanently affixed to the skull, and aimed at the lateral ventricle (divided equally between left and right). Rats were allowed 5 days to recover from surgery. Administration: In vivo administration of AZD103 to rats was performed by dissolving AZD103 into drinking water. Different concentrations were prepared, and the average daily water intake used to target specific average daily dose levels. These dose levels were therefore approximate. Testing: AZD 103 was tested against Aβ oligomers known to disrupt cognitive function. […] AZD 103 was incubated with the injectate medium containing Aβ oligomers prior to assessing it's affect on ALCR. […] Treatments were assessed in the following order: • 1. […] ICV AZD 103 alone • 3. […] Error Rate Analysis: All error rates under AZD 103 were compared to baseline error rates consisting of at least 3-4 non-treatment days prior to injections. This is a repeated measure within subject design that produces maximum power to detect changes in the error rates. Histology: Upon completion of the study, 20 rat brains were banked. The other 20 brains were evaluated histologically for inflammation, gliosis and cannula placement. […] Serial hematoxylin and eosin stained sections were used to evaluate for cannula placement. These same hemibrains were evaluated for inflammation (neutrophils/lymphocytes/macrophages), gliosis (microglial and astrocytic) and neuron loss using standard hematoxylin and eosin staining as well as specific markers for gliosis as needed.

[3] = tested on: TgCRND8 mice; assay: Morris Water Maze spatial reference memory test in TgCRND8 mice; format: in vivo, mouse
Procedure: Mice. […] This initial dosage was chosen based upon the dosage of myo-cyclohexanehexyl (6-18 grams/day/adult or 86-257 mg/Kg/day) that is typically administered to human patients for various psychiatric disorders. […] A cohort of animals (n=10 mice per treatment arm) entered the study at five months of age, and outcomes were then analyzed after one month of treatment. The body weight, coat characteristics and in cage behaviour were monitored. Mannitol was used as a negative control for potential alterations in caloric intake. All experiments were performed according to the Canadian Council on Animal Care guidelines. Behavioural tests: Morris Water Maze testing was performed as previously described. After non-spatial pre-training, mice underwent place discrimination training for 5 days with 4-trials per day, followed by a cued visible platform to rule out general motivational, learning deficits and motor problems, and a probe trial to evaluate memory. […] Open field test for motor activity was preformed as described previously. Duration of walking, pausing and grooming were analyzed as indices of spontaneous locomotor activity. Sensorimotor function was examined with an Economex™ accelerating rotarod (Columbus Instruments, Columbus, Ohio), as described elsewhere. The rod was set to accelerate at a rate of 0.2 r.p.m./s, from an initial, constant speed of 5 r.p.m. Latency to fall was recorded in four daily trials, conducted at 30 min intervals. All mice were trained for seven days before testing. The test day performance score for each animal was obtained by summing its latency to fall over the four trials. Cerebral amyloid burden. Brains were removed and one hemisphere was fixed in 4% paraformaldehyde and embedded in paraffin wax in the mid sagittal plane. To generate sets of systematic uniform random sections, 5 μm serial sections were collected across the entire hemisphere. Sets of sections at 50 μm intervals were used for analyses (10-14 sections/set). Plaques were identified after antigen retrieval with formic acid, and incubation with primary anti-AD antibody (Dako M-0872), followed by secondary antibody (Dako StreptABCcomplex/horseradish kit). End products were visualized with DAB and were counter-stained with luxol fast blue. Amyloid plaque burden was assessed with Leco IA-3001 image analysis software interfaced with Leica microscope and Hitachi KP-M1U CCD video camera. Openlab imaging software (Improvision, Lexington, Mass.) was then used to convert micrographs to binary images for plaque number and plaque area determinations. Vascular amyloid burden was defined as amyloid originating from or surrounding blood vessels and was analysed similarly. Plasma and Cerebral Aβ Content. Hemi-brain samples were homogenized in a buffered sucrose solution, followed by either 0.4% diethylamine/100 mM NaCl for soluble Aβ levels or cold formic acid for the isolation of total Aβ. After neutralization, the samples were diluted and analyzed for Aβ40 and Aβ42 using commercially available kits (BIOSOURCE International). Each hemisphere was analyzed intriplicate and the mean values ±SEM reported. Western blot analyses were performed on all fractions using urea gels for Aβ species analyses. Aβ was detected using 6E10 (BIOSOURCE International) and Enhanced Chemiluminenscence (Amersham). Gliosis Quantitation. Five randomly selected, evenly spaced, sagittal sections were collected from paraformaldehyde-fixed and frozen hemispheres of treated and control mice. […]

[4] = tested on: TgCRND8 mice; assay: Two-month treatment of TgCRND8 mice, cognition and pathology; format: in vivo, mouse; conditions: TgCRND8 mice treated for 2 months, ending at 7 months of age
Procedure: Scyllo-inositol was also administered to […]8 mice for 2 months, ending at 7 months of age.

[5] = six month old TgCRND8 mice, 28 days treatment from 5 months

T1 sequence (P05067 672-713): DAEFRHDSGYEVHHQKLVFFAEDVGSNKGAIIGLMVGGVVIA

OC1C(O)C(O)C(O)C(O)C1O (centres unmarked) [scyllo-cyclohexanehexyl, 1,3,5/2,4,6-(scyllo-) cyclohexanehexyl]
Plasma Aβ42 levels [1]: 990 ± 73 pg/mL | impact on ALCR performance without oligomers ([2]; AZD103 administered without oligomers): no impact on performance | Switching % errors ([2]; ICV AZD103 alone, baseline = 100): 99% | Switching % errors ([2]; ICV Aβ oligomers incubated ex vivo with AZD103, baseline = 100): 95% | Switching % errors ([2]; ICV oligomers after 4 days PO 30 mg/kg/day in drinking water): 109% | Switching % errors ([2]; ICV oligomers after 4 days PO 100 mg/kg/day in drinking water): 100% | Switching % errors ([2]; ICV oligomers after 4 days PO 300 mg/kg/day in drinking water): 109% | probe trial, % time in target quadrant ([3]; separate cohort of treated TgCRND8 mice vs non-Tg littermates): not statistically different from non-Tg littermates | spatial learning performance compared to non-Tg littermates [3, 5]: indistinguishable from that of their non-Tg littermates | spatial learning performance compared to untreated TgCRND8 littermates [3, 5]: significantly better behavioural performance compared to untreated TgCRND8 mice; also recorded: significantly better than untreated TgCRND8 littermates | effects on cognition and pathology [4]: Sustained effects both on cognition and pathology were observed
